Values of other authors, collected in PubChem BioAssay AID1259409 (Chemical Carcinogenesis Research Information System (CCRIS), 2018).

Tested on: rodent chemically induced tumor inhibition, incidence and multiplicity
Test: CCRIS tumor inhibitor studies
Settings: Dose [Inhibitor]: 0

Q: Which “tumour outcome (control, treated, inhibition, significance)” value (Carcinogen: 7,12-DIMETHYLBENZ[A]ANTHRACENE, 57-97-6, 30 MG/KG BW TWICE AT 24 HR AND 2 HR PRIOR TO CARCINOGEN DOSE (STUDY DURATION: 18 WK), Route [Inhibitor]: GAVAGE, Species: MOUSE, Strain/Sex: SENCAR/FEMALE, Target Tissue: Type of Lesion: INTEGUMENTARY SYSTEM: SKIN PAPILLOMA, Dose [Carcinogen]: 10 NMOL IN 0.2 ML ACETONE ONCE, Promoter: 12-O-TETRADECANOYLPHORBOL-13-ACETATE, 16561-29-8) does the source give for COc1c2ccoc2c(OC)c2oc(=O)ccc12 here?
A: 30/30 (100%), 29/30 (97%), 3%, not significant

Q: And the “tumour outcome (control, treated, inhibition, significance)” value (Carcinogen: 7,12-DIMETHYLBENZ[A]ANTHRACENE, 57-97-6, 70 MG/KG BW TWICE AT 24 HR AND 2 HR PRIOR TO CARCINOGEN DOSE (STUDY DURATION: 18 WK), Route [Inhibitor]: GAVAGE, Species: MOUSE, Strain/Sex: SENCAR/FEMALE, Target Tissue: Type of Lesion: INTEGUMENTARY SYSTEM: SKIN PAPILLOMA, Dose [Carcinogen]: 10 NMOL IN 0.2 ML ACETONE ONCE, Promoter: 12-O-TETRADECANOYLPHORBOL-13-ACETATE, 16561-29-8)?
A: 30/30 (100%), 26/30 (86%), 14%, not significant

Q: What about the “tumour outcome (control, treated, inhibition, significance)” value (Carcinogen: 7,12-DIMETHYLBENZ[A]ANTHRACENE, 57-97-6, 150 MG/KG BW TWICE AT 24 HR AND 2 HR PRIOR TO CARCINOGEN DOSE (STUDY DURATION: 18 WK), Route [Inhibitor]: GAVAGE, Species: MOUSE, Strain/Sex: SENCAR/FEMALE, Target Tissue: Type of Lesion: INTEGUMENTARY SYSTEM: SKIN PAPILLOMA, Dose [Carcinogen]: 10 NMOL IN 0.2 ML ACETONE ONCE, Promoter: 12-O-TETRADECANOYLPHORBOL-13-ACETATE, 16561-29-8) of the same compound?
A: 30/30 (100%), 23/30 (78%), 22%, p< 0.006

Q: What about the “tumour outcome (control, treated, inhibition, significance)” value (Carcinogen: 7,12-DIMETHYLBENZ[A]ANTHRACENE, 57-97-6, 400 NMOL IN 0.2 ML ACETONE ONCE 5 MIN PRIOR TO CARCINOGEN DOSE (STUDY DURATION: 18 WK), Route [Inhibitor]: DERMAL, Species: MOUSE, Strain/Sex: SENCAR/FEMALE, Target Tissue: Type of Lesion: INTEGUMENTARY SYSTEM: SKIN PAPILLOMA, Dose [Carcinogen]: 10 NMOL IN 0.2 ML ACETONE ONCE, Promoter: 12-O-TETRADECANOYLPHORBOL-13-ACETATE, 16561-29-8) of the same compound?
A: 30/30 (100%), 28/30 (93%), 7%, not significant

Q: What about the “tumour outcome (control, treated, inhibition, significance)” value (Carcinogen: 7,12-DIMETHYLBENZ[A]ANTHRACENE, 57-97-6, 800 NMOL IN 0.2 ML ACETONE ONCE 5 MIN PRIOR TO CARCINOGEN DOSE (STUDY DURATION: 18 WK), Route [Inhibitor]: DERMAL, Species: MOUSE, Strain/Sex: SENCAR/FEMALE, Target Tissue: Type of Lesion: INTEGUMENTARY SYSTEM: SKIN PAPILLOMA, Dose [Carcinogen]: 10 NMOL IN 0.2 ML ACETONE ONCE, Promoter: 12-O-TETRADECANOYLPHORBOL-13-ACETATE, 16561-29-8) of the same compound?
A: 30/30 (100%), 27/30 (90%), 10%, not significant

Q: And the “tumour outcome (control, treated, inhibition, significance)” value (Carcinogen: 7,12-DIMETHYLBENZ[A]ANTHRACENE, 57-97-6, 1600 NMOL IN 0.2 ML ACETONE ONCE 5 MIN PRIOR TO CARCINOGEN DOSE (STUDY DURATION: 18 WK), Route [Inhibitor]: DERMAL, Species: MOUSE, Strain/Sex: SENCAR/FEMALE, Target Tissue: Type of Lesion: INTEGUMENTARY SYSTEM: SKIN PAPILLOMA, Dose [Carcinogen]: 10 NMOL IN 0.2 ML ACETONE ONCE, Promoter: 12-O-TETRADECANOYLPHORBOL-13-ACETATE, 16561-29-8)?
A: 30/30 (100%), 23/30 (77%), 23%, p< 0.002

Q: And the “tumour outcome (control, treated, inhibition, significance)” value (Carcinogen: 7,12-DIMETHYLBENZ[A]ANTHRACENE, 57-97-6, 3200 NMOL IN 0.2 ML ACETONE ONCE 5 MIN PRIOR TO CARCINOGEN DOSE (STUDY DURATION: 18 WK), Route [Inhibitor]: DERMAL, Species: MOUSE, Strain/Sex: SENCAR/FEMALE, Target Tissue: Type of Lesion: INTEGUMENTARY SYSTEM: SKIN PAPILLOMA, Dose [Carcinogen]: 10 NMOL IN 0.2 ML ACETONE ONCE, Promoter: 12-O-TETRADECANOYLPHORBOL-13-ACETATE, 16561-29-8)?
A: 30/30 (100%), 27/30 (89%), 11%, not significant

Q: What does the source list for CC(=O)[C@@H]1C[C@@H]2C[C@H]1[C@@H](N=C=S)C2?
A: tumour outcome (control, treated, inhibition, significance) (Carcinogen: 7,12-DIMETHYLBENZ[A]ANTHRACENE, 57-97-6, 75 UMOL/D IN 0.5 ML EMULPHOR EL-620 FOR 5 CONSECUTIVE DAYS BEGINNING AT 47 D OF AGE (STUDY DURATION: 155 D), Route [Inhibitor]: GAVAGE, Species: RAT, Strain/Sex: SPRAGUE-DAWLEY/FEMALE, Target Tissue: Type of Lesion: MAMMARY GLAND: TUMOR, Dose [Carcinogen]: 8 MG IN 1 ML SESAME OIL ONCE AT 50 D OF AGE, Promoter: NONE USED): 17/25 (68%), 5/20 (25%), 63%, p<0.05; tumour outcome (control, treated, inhibition, significance) (Carcinogen: 7,12-DIMETHYLBENZ[A]ANTHRACENE, 57-97-6, 150 UMOL/D IN 0.5 ML EMULPHOR EL-620 FOR 5 CONSECUTIVE DAYS BEGINNING AT 47 D OF AGE (STUDY DURATION: 155 D), Route [Inhibitor]: GAVAGE, Species: RAT, Strain/Sex: SPRAGUE-DAWLEY/FEMALE, Target Tissue: Type of Lesion: MAMMARY GLAND: TUMOR, Dose [Carcinogen]: 8 MG IN 1 ML SESAME OIL ONCE AT 50 D OF AGE, Promoter: NONE USED): 17/25 (68%), 5/20 (25%), 63%, p<0.05

Q: Which “tumour outcome (control, treated, inhibition, significance)” value (Carcinogen: 3-METHYLCHOLANTHRENE, 56-49-5, 1/200 OF A PILL CONTAINING 0.25 UG ETHINYLESTRADIOL AND 5 UG LYNESTRENOL 1/D FOR 60 D (STUDY DURATION: 60 D), Route [Inhibitor]: ORAL, Species: MOUSE, Strain/Sex: SWISS/FEMALE, Target Tissue: Type of Lesion: UTERINE CERVIX: TUMOR, Dose [Carcinogen]: 300 UG IN BEESWAX IMPREGNATED COTTON THREAD INSERTED INTO CANAL OF UTERINE CERVIX FOR DURATION OF STUDY, Promoter: NONE USED) does the source give for C#C[C@]1(O)CC[C@H]2[C@@H]3CCc4cc(CC)ccc4[C@H]3CC[C@@]21C (tested in a mixture with another compound) here?
A: 2/23 (9%), 1/27 (4%), 56%, not significant

Q: What about the “tumour outcome (control, treated, inhibition, significance)” value (Carcinogen: 3-METHYLCHOLANTHRENE, 56-49-5, 1/200 OF A PILL CONTAINING 0.25 UG ETHINYLESTRADIOL AND 5 UG LYNESTRENOL 1/D FOR 90 D (STUDY DURATION: 90 D), Route [Inhibitor]: ORAL, Species: MOUSE, Strain/Sex: SWISS/FEMALE, Target Tissue: Type of Lesion: UTERINE CERVIX: TUMOR, Dose [Carcinogen]: 300 UG IN BEESWAX IMPREGNATED COTTON THREAD INSERTED INTO CANAL OF UTERINE CERVIX FOR DURATION OF STUDY, Promoter: NONE USED) of the same compound?
A: 6/23 (26%), 4/20 (20%), 23%, not significant

Q: What about the “tumour outcome (control, treated, inhibition, significance)” value (Carcinogen: 3-METHYLCHOLANTHRENE, 56-49-5, 1/2000 OF A PILL CONTAINING 0.025 UG ETHINYLESTRADIOL AND 0.5 UG OF LYNESTRENOL 1/D FOR 60 D (STUDY DURATION: 60 D), Route [Inhibitor]: ORAL, Species: MOUSE, Strain/Sex: SWISS/FEMALE, Target Tissue: Type of Lesion: UTERINE CERVIX: TUMOR, Dose [Carcinogen]: 300 UG IN BEESWAX IMPREGNATED COTTON THREAD INSERTED INTO CANAL OF UTERINE CERVIX FOR DURATION OF STUDY, Promoter: NONE USED) of the same compound?
A: 2/23 (9%), 1/24 (4%), 56%, not significant

Q: And the “tumour outcome (control, treated, inhibition, significance)” value (Carcinogen: 3-METHYLCHOLANTHRENE, 56-49-5, 1/2000 OF A PILL CONTAINING 0.025 UG ETHINYLESTRADIOL AND 0.5 UG OF LYNESTRENOL 1/D FOR 90 D (STUDY DURATION: 90 D), Route [Inhibitor]: ORAL, Species: MOUSE, Strain/Sex: SWISS/FEMALE, Target Tissue: Type of Lesion: UTERINE CERVIX: TUMOR, Dose [Carcinogen]: 300 UG IN BEESWAX IMPREGNATED COTTON THREAD INSERTED INTO THE CANAL OF THE UTERINE CERVIX FOR THE DURATION OF STUDY, Promoter: NONE USED)?
A: 6/23 (26%), 1/31 (3%), 88%, p<0.05
